Measured values reported in US6479044B1, “Antibacterial solution” (Colgate-Palmolive Company, priority 2001, dated 2002).

Assay: Resistance to rinse by colorimetry (Indigotine dye revelation, chromameter)
Format: physicochemical
Conditions: 50 μl on ceramic tile, rinsed 2×10 ml deionized water, Indigotine dye 0.033%
Protocol: Methodology: 50 μl of each solution in deionized water is deposited on a ceramic tile 2.5 cm×2.5 cm. After drying at room temperature, the treated tiles are rinsed with 2×10 ml deionized water. The revelation is then performed with 200 μl lndigotine dye ex. Wackherr (Cl 73015) at 0.033% in deionized water (3 minutes contact). After removing the excess of dye with 10 ml deionized water and drying of the surface, the coloration intensity is measured with a chromameter (Minolta CR200™). The higher the ΔE, the higher the difference of coloration versus the reference tile (no treatment, no contact with the dye). The coloration is the signal of the persistence of the PHMB on the surface after rinsing.

**Q.** For `CCCCCCCCCCCCOS(=O)(=O)[O-].[Na+]` [SLS 0.1%, sodium lauryl sulfate], which “ΔE (coloration versus reference tile)” value is on record?
**A.** Its value is 0.5.
